Several values for one entry are separate records, joined by “and”; a condition that tells them apart may be missing. Equal values may be shown once.
Key:
Experiment in all cases: radiometric filter-binding kinase assay
STK16 (human) = STK16 (human) (UniProt O75716); settings: compound 100.0 µM; ATP 50 µM
NTRK1 (human) = NTRK1 (human) (UniProt P04629); settings: compound 100.0 µM; ATP 20 µM
MAPKAPK3 (human) = MAPKAPK3 (human) (UniProt Q16644); settings: compound 100.0 µM; ATP 20 µM
GCK (human) = GCK (human) (UniProt Q12851); settings: compound 100.0 µM; ATP 20 µM
AURKB (human) = AURKB (human) (UniProt Q96GD4); settings: compound 100.0 µM; ATP 20 µM
PDPK1 (human) = PDPK1 (human) (UniProt O15530); settings: compound 100.0 µM
MARK1 (human) = MARK1 (human) (UniProt Q9P0L2); settings: compound 100.0 µM; ATP 20 µM
CLK2 (human) = CLK2 (human) (UniProt P49760); settings: compound 100.0 µM; ATP 5 µM
RPS6KA1 KD1 KD2 (human) = RPS6KA1 KD1 KD2 (human) (UniProt Q15418); settings: compound 100.0 µM; ATP 50 µM
PIM2 (human) = PIM2 (human) (UniProt Q9P1W9); settings: compound 100.0 µM; ATP 5 µM
[1] = molecular target: PRKAA1 PRKAB2 PRKAG1 (human) (UniProt O43741+Q13131+P54619); settings: compound 100.0 µM; ATP 20 µM
MAP3K9 (human) = MAP3K9 (human) (UniProt P80192); settings: compound 100.0 µM; ATP 20 µM
RIPK2 (human) = RIPK2 (human) (UniProt O43353); settings: compound 100.0 µM; ATP 20 µM
STK3 (human) = STK3 (human) (UniProt Q13188); settings: compound 100.0 µM; ATP 20 µM
GSK3B (human) = GSK3B (human) (UniProt P49841); settings: compound 100.0 µM; ATP 5 µM
DAPK1 (human) = DAPK1 (human) (UniProt P53355); settings: compound 100.0 µM; ATP 5 µM
PRKCZ (human) = PRKCZ (human) (UniProt Q05513); settings: compound 100.0 µM; ATP 5 µM
STK33 (human) = STK33 (human) (UniProt Q9BYT3); settings: compound 100.0 µM; ATP 50 µM
MAP3K7 TAB1 (human) = MAP3K7 TAB1 (human) (UniProt Q15750+O43318); settings: compound 100.0 µM; ATP 5 µM
[2] = tested on: PAK2 (human), Q13177 [T402E]; settings: compound 100.0 µM; ATP 20 µM
SYK (human) = SYK (human) (UniProt P43405); settings: compound 100.0 µM; ATP 20 µM
MYLK (human) = MYLK (human) (UniProt Q15746); settings: compound 100.0 µM; ATP 50 µM
EPHA2 (human) = EPHA2 (human) (UniProt P29317); settings: compound 100.0 µM; ATP 50 µM
FGFR1 (human) = FGFR1 (human) (UniProt P11362); settings: compound 100.0 µM; ATP 20 µM
MAPK3 (human) = MAPK3 (human) (UniProt P27361); settings: compound 100.0 µM; ATP 5 µM
MAP3K11 (human) = MAP3K11 (human) (UniProt Q16584); settings: compound 100.0 µM; ATP 20 µM
PRKACA (human) = PRKACA (human) (UniProt P17612); settings: compound 100.0 µM; ATP 20 µM
EPHB2 (human) = EPHB2 (human) (UniProt P29323); settings: compound 100.0 µM; ATP 20 µM
MAP2K6 (human) = MAP2K6 (human) (UniProt P52564); settings: compound 100.0 µM; ATP 50 µM
INSRR (human) = INSRR (human) (UniProt P14616); settings: compound 100.0 µM; ATP 5 µM
MARK3 (human) = MARK3 (human) (UniProt P27448); settings: compound 100.0 µM; ATP 5 µM
PAK4 (human) = PAK4 (human) (UniProt O96013); settings: compound 100.0 µM; ATP 5 µM
MAPKAPK5 (human) = MAPKAPK5 (human) (UniProt Q8IW41); settings: compound 100.0 µM; ATP 20 µM
HIPK2 (human) = HIPK2 (human) (UniProt Q9H2X6); settings: compound 100.0 µM; ATP 5 µM
MINK1 (human) = MINK1 (human) (UniProt Q8N4C8); settings: compound 100.0 µM; ATP 50 µM

MAP3K7 TAB1 (human), sequence (O43318 whole entry, looked up): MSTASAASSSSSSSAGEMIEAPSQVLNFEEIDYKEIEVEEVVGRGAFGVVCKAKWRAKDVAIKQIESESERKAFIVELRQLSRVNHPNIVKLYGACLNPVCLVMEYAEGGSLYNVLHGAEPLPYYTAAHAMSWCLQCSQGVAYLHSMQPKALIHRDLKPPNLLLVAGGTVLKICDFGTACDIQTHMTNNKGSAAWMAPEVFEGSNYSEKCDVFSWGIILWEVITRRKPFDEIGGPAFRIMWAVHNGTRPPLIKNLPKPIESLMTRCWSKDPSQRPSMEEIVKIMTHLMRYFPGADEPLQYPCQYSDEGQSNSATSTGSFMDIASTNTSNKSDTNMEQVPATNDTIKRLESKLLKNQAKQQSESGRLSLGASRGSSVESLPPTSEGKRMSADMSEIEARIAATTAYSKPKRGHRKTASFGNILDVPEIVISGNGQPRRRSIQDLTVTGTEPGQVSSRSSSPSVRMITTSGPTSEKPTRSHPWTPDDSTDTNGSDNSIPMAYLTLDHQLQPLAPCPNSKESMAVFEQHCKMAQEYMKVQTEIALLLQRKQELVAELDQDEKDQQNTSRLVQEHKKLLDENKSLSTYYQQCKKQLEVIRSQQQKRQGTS
MAP3K7 TAB1 (human), sequence (Q15750 whole entry, looked up): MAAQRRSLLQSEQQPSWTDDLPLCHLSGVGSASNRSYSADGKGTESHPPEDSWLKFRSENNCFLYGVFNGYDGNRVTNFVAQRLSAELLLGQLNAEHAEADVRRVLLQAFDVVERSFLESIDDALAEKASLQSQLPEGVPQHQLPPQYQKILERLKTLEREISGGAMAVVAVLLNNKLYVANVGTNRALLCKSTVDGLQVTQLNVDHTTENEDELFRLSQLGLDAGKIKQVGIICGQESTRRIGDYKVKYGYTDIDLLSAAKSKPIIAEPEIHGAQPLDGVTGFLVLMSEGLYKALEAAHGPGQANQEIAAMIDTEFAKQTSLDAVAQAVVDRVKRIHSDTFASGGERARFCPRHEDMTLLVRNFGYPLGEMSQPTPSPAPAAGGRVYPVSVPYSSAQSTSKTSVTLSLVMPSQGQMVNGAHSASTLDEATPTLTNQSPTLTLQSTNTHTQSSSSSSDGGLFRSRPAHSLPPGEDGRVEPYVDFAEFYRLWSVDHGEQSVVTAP
MARK1 (human), sequence (Q9P0L2 whole entry, looked up): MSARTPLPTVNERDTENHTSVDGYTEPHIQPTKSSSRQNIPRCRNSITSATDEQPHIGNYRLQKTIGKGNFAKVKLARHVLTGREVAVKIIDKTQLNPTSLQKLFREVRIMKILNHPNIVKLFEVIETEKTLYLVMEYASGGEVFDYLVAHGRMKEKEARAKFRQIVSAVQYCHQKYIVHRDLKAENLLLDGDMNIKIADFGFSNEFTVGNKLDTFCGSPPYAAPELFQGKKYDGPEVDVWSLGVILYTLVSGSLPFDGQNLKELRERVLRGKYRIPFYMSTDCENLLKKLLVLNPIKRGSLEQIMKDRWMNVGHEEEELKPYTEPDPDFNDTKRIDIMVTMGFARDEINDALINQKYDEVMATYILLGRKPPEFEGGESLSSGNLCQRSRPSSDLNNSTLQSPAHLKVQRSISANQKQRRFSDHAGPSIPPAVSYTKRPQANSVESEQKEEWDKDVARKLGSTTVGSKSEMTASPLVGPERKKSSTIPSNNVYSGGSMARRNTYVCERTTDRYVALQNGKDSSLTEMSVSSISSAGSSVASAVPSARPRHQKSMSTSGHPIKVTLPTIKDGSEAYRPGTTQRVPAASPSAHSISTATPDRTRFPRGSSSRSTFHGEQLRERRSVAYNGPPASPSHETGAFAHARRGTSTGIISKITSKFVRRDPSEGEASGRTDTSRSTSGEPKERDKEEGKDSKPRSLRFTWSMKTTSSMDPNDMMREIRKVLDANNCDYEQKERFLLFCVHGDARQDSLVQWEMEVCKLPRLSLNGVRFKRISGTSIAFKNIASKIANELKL
MAP3K11 (human), sequence (Q16584 whole entry, looked up): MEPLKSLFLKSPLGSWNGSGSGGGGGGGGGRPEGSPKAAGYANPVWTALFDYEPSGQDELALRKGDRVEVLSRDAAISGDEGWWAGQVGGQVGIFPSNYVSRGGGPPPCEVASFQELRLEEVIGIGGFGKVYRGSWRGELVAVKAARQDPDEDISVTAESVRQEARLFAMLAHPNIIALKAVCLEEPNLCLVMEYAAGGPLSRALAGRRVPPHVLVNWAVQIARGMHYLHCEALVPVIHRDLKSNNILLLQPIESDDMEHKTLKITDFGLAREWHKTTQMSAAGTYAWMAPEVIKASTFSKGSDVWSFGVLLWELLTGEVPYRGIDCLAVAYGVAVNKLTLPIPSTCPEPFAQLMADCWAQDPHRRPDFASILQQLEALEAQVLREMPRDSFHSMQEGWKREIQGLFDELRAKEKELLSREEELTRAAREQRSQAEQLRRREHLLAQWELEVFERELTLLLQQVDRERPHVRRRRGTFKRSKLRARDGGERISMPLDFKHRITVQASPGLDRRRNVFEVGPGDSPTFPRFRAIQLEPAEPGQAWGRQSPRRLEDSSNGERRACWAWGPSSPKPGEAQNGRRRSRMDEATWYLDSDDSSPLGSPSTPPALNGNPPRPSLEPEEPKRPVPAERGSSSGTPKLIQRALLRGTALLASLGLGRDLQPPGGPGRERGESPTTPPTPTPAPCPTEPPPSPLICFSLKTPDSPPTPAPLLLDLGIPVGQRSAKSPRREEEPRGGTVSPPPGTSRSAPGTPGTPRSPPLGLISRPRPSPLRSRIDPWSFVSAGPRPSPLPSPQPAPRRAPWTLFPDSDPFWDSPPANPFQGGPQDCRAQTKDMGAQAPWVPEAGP
PAK4 (human), sequence (O96013 whole entry, looked up): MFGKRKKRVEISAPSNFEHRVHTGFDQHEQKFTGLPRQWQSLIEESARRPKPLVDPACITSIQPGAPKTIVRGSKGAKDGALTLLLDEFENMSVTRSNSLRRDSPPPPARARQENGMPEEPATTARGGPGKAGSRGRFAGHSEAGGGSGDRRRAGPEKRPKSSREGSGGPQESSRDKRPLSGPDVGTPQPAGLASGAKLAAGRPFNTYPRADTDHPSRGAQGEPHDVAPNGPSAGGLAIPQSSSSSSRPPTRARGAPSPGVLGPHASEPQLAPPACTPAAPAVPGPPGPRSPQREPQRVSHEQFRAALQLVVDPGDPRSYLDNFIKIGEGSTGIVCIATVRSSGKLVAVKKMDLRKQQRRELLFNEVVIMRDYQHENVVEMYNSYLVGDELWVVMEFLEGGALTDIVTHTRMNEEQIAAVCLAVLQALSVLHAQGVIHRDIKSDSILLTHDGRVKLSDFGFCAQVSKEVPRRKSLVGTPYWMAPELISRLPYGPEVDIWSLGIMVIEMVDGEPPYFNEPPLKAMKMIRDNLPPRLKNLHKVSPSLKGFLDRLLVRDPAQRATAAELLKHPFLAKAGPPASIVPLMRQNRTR
FGFR1 (human), sequence (P11362 whole entry, looked up): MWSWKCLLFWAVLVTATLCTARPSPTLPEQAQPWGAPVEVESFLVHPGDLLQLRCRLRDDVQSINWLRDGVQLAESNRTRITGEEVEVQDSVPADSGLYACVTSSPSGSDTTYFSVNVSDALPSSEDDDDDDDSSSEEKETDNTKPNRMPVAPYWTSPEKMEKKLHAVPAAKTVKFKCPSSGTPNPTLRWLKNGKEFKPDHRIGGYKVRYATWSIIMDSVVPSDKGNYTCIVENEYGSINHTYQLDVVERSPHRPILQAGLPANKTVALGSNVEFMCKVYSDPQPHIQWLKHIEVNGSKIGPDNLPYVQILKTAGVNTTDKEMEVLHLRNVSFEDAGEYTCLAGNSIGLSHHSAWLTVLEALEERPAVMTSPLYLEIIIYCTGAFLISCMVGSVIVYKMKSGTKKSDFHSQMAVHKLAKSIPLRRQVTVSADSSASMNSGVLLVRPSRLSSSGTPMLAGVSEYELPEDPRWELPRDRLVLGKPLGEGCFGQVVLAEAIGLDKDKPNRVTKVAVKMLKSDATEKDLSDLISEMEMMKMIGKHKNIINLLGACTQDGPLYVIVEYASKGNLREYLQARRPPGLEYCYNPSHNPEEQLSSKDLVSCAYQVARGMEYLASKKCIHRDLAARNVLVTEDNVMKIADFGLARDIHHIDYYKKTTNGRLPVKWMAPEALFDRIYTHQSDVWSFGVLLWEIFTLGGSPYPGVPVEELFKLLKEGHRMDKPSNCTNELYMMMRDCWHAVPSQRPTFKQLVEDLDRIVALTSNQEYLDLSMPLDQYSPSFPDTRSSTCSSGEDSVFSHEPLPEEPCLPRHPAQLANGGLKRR
MAPKAPK3 (human), sequence (Q16644 whole entry, looked up): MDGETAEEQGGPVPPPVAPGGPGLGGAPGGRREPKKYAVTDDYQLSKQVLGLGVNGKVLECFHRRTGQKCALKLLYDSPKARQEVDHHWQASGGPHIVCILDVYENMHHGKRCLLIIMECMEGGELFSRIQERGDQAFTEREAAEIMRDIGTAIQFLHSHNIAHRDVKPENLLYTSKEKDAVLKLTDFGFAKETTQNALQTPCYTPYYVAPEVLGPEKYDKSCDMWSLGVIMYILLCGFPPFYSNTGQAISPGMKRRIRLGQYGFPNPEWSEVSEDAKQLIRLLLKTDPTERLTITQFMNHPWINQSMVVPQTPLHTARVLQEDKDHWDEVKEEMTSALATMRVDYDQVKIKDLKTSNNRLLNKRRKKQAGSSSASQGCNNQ
MAPK3 (human), sequence (P27361 whole entry, looked up): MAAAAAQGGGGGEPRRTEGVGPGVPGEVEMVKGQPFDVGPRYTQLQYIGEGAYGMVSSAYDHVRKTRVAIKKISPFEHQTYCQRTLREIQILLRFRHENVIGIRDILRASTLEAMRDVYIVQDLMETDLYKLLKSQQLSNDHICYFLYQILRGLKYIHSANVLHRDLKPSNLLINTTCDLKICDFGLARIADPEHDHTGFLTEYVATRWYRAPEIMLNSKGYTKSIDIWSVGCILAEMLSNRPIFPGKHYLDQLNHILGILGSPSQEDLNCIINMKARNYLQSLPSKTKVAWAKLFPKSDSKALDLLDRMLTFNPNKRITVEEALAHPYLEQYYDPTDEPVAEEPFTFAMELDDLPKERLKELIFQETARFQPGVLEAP

| inhibition (STK16 (human)) [%] | inhibition (NTRK1 (human)) [%] | inhibition (MAPKAPK3 (human)) [%] | inhibition (GCK (human)) [%] | inhibition (AURKB (human)) [%] | inhibition (PDPK1 (human); ATP 20 µM) [%] | inhibition (PDPK1 (human); ATP 50 µM) [%] | inhibition (MARK1 (human)) [%] | inhibition (CLK2 (human)) [%] | inhibition (RPS6KA1 KD1 KD2 (human)) [%] | inhibition (PIM2 (human)) [%] | inhibition [1] [%] | inhibition (MAP3K9 (human)) [%] | inhibition (RIPK2 (human)) [%] | inhibition (STK3 (human)) [%] | inhibition (GSK3B (human)) [%] | inhibition (DAPK1 (human)) [%] | inhibition (PRKCZ (human)) [%] | inhibition (STK33 (human)) [%] | inhibition (MAP3K7 TAB1 (human)) [%] | SMILES | also measured |
| --- | --- | --- | --- | --- | --- | --- | --- | --- | --- | --- | --- | --- | --- | --- | --- | --- | --- | --- | --- | --- | --- |
| 7 | 61 | 40 | 93 | 76 | 35 | 6 | 0 | 74 | 34 | 16 | 7 | 81 | 56 | 6 | 72 | 31 | 13 | 20 | 86 | Nc1nc2cnc(-c3ccccc3)cn2n1 | inhibition [2]: 31%; inhibition (SYK (human)): 84%; inhibition (MYLK (human)): 19%; inhibition (EPHA2 (human)): 28%; inhibition (FGFR1 (human)): 79%; inhibition (MAPK3 (human)): 31%; inhibition (MAP3K11 (human)): 89%; inhibition (PRKACA (human)): 9%; inhibition (EPHB2 (human)): 30%; inhibition (MAP2K6 (human)): 3%; inhibition (INSRR (human)): 71%; inhibition (MARK3 (human)): 59%; inhibition (PAK4 (human)): 89%; inhibition (MAPKAPK5 (human)): 34%; inhibition (HIPK2 (human)): 57%; inhibition (MINK1 (human)): 68% |
| 0 | 6 | 38 | 0 | 12 | 13 | 8 | 0 | 43 | 3 | 16 | 18 | 14 | 13 | 0 | 38 | 14 | 0 | 0 | 31 | CC(C)(C)Nc1c(COCc2ccccc2)nc2[nH]cnn12 | inhibition [2]: 14%; inhibition (SYK (human)): 12%; inhibition (MYLK (human)): 24%; inhibition (EPHA2 (human)): 0%; inhibition (FGFR1 (human)): 40%; inhibition (MAPK3 (human)): 1%; inhibition (MAP3K11 (human)): 0%; inhibition (PRKACA (human)): 0% and 21%; inhibition (EPHB2 (human)): 1%; inhibition (MAP2K6 (human)): 1%; inhibition (INSRR (human)): 4%; inhibition (MARK3 (human)): 13%; inhibition (PAK4 (human)): 0%; inhibition (MAPKAPK5 (human)): 44%; inhibition (HIPK2 (human)): 18%; inhibition (MINK1 (human)): 3% |
| 21 | 39 | 33 | 6 | 0 | 14 | 4 | 16 | 0 | 23 | 9 | 0 | 2 | 16 | 21 | 9 | 16 | 3 | 21 | 26 | O=C(Nc1cnc2[nH]ccn2c1=O)c1ccccc1 | inhibition [2]: 12%; inhibition (SYK (human)): 22%; inhibition (MYLK (human)): 36%; inhibition (EPHA2 (human)): 31%; inhibition (FGFR1 (human)): 14%; inhibition (MAPK3 (human)): 10%; inhibition (MAP3K11 (human)): 40%; inhibition (PRKACA (human)): 0% and 2%; inhibition (EPHB2 (human)): 14%; inhibition (MAP2K6 (human)): 0%; inhibition (INSRR (human)): 11%; inhibition (MARK3 (human)): 12%; inhibition (PAK4 (human)): 20%; inhibition (MAPKAPK5 (human)): 17%; inhibition (HIPK2 (human)): 7%; inhibition (MINK1 (human)): 25% |
